# Data reported in ChEMBL document CHEMBL2417474, “Synthesis, antiproliferative and anti-inflammatory activities of some novel 6-aryl-2-(p-(methanesulfonyl)phenyl)-4,5-dihydropyridazi-3(2H)-ones” (Eur J Med Chem, 2013).
# System: SF-295
# Assay: Growth inhibition of human SF295 cells assessed as cell growth at 10 uM after 48 hrs by sulforhodamine B assay
# Format: functional
# Settings: SF-295, 48 h, read-out: Activity
row,Structure (SMILES),growth at 10 µM [%]
1,Cc1cc(O)ccc1C1=NN(c2ccc(S(C)(=O)=O)cc2)C(=O)CC1,32.1
2,CCc1ccc(C2=NN(c3ccc(S(C)(=O)=O)cc3)C(=O)CC2)cc1,9.24
